Measured values from ChEMBL document CHEMBL1130699, “Coprophilin: an anticoccidial agent produced by a dung inhabiting fungus” (1998).
In brackets after ≈: the same amount, converted by molar mass. Activity calls are given as the source filed them. The rule behind the calls is not given here.

How the values were obtained:
MDBK441 [1] = experiment: Compound was tested for inhibition of the growth of Eimeria tenella in MDBK 441 cell line; type: functional; details: Bos taurus
MDBK441 [2] = experiment: Compound was tested for inhibition of the growth of Eimeria tenella in MDBK 441 cell line up to concentration 25 uM; no inhibition; type: functional, cell-based; details: Bos taurus

| MIC (MDBK441 [1]) [µM] | MIC (MDBK441 [2]) | Compound |
| --- | --- | --- |
| 1.5 (≈ 0.478 µg/mL) |  | COC(=O)/C=C/C=C/[C@@H]1[C@H]2[C@H](C)[C@@H](O)C(C)C[C@]2(C)C=C[C@@H]1C (stereo partly drawn) |
|  | inactive | COC(=O)CCCC[C@@H]1[C@H]2[C@H](C)[C@@H](O)C(C)C[C@]2(C)CC[C@@H]1C (stereo partly drawn) |
|  | inactive | CC1C[C@]2(C)C=C[C@H](C)[C@H](/C=C/C=C/C(=O)O)[C@H]2[C@H](C)[C@H]1O (stereo partly drawn) |
